Measured values from patent publication US10954196B2, “Method for producing 5-hydroxy-1H-imidazole-4 carboxamide 3/4 hydrate” (FUJIFILM Corporation, priority 2017, dated 2021).

What was measured:
[1] = Test Example 3: coloring stability during storage (unwashed product); type: physicochemical; details: light shielding, 60° C., 75% relative humidity, hydrate; for Color difference (ΔE): before vs after storage for 5 days, spectrophotometric color difference meter, reflection method; for Tone: visually observed after storage for 5 days, air atmosphere
[2] = Test Example 1: test of coloring stability during storage (washed product); type: physicochemical; details: visually observed after storage for 5 days, air atmosphere, light shielding, 60° C., 75% relative humidity, hydrate
Procedure: About 1 g of the test substance was placed in a storage bag formed by stacking two 0.04 mm-thick polyethylene bags, sealed in each polyethylene bag, and stored for 5 days in an air atmosphere under the conditions of light shielding, 60° C., and 75% relative humidity. The tone of the test substance after the test was visually observed. In addition, a change in the color of the crystal before and after the test was measured with a spectrophotometric color difference meter to determine the color difference. Colorimeter: spectrophotometric color difference meter SE2000 manufactured by Nippon Denshoku Industries Co., Ltd. Measurement method: reflection method

[3] = as disclosed in Test Example 1 and Test Example 2 of WO2009/035168A; cited from earlier work

| Structure (SMILES) | Color difference (ΔE) [1] | Tone [1] | Tone [2] | Coloring stability (color change) [3] |
| --- | --- | --- | --- | --- |
| NC(=O)c1nc[nH]c1O.O [Comparative Example 1, 5-hydroxy-1H-imidazole-4-carboxamide•¾ hydrate, reference compound] | 62.4 | Black blue |  |  |
| NC(=O)c1nc[nH]c1O.O [Comparative Example 2, 5-hydroxy-1H-imidazole-4-carboxamide•¾ hydrate, reference compound] | 51.4 | Black blue |  |  |
| NC(=O)c1nc[nH]c1O.O [Example 2, 5-hydroxy-1H-imidazole-4-carboxamide•¾ hydrate] | 3.1 | White | White |  |
| NC(=O)c1nc[nH]c1O.O [Example 3, 5-hydroxy-1H-imidazole-4-carboxamide•¾ hydrate] | 1.1 | White | White |  |
| NC(=O)c1nc[nH]c1O.O [Example 4, 5-hydroxy-1H-imidazole-4-carboxamide•¾ hydrate] | 2.3 | White | White |  |
| NC(=O)c1nc[nH]c1O.O [Example 5, 5-hydroxy-1H-imidazole-4-carboxamide•¾ hydrate] | 4.1 | White | White |  |
| NC(=O)c1nc[nH]c1O.O [Example 7, 5-hydroxy-1H-imidazole-4-carboxamide•¾ hydrate] | 1.0 | White | White |  |
| NC(=O)c1nc[nH]c1O.O [Example 8, 5-hydroxy-1H-imidazole-4-carboxamide•¾ hydrate] | 1.4 | White | White |  |
| NC(=O)c1nc[nH]c1O.O [Example 9, 5-hydroxy-1H-imidazole-4-carboxamide•¾ hydrate] | 0.9 | White | White |  |
| NC(=O)c1nc[nH]c1O.O [Example 10, 5-hydroxy-1H-imidazole-4-carboxamide•¾ hydrate] | 2.2 | White | White |  |
| NC(=O)c1nc[nH]c1O.O [Example 11, 5-hydroxy-1H-imidazole-4-carboxamide•¾ hydrate] | 1.6 | White | White |  |
| NC(=O)c1nc[nH]c1O.O [Example 12, 5-hydroxy-1H-imidazole-4-carboxamide•¾ hydrate] |  | White | White |  |
| NC(=O)c1nc[nH]c1O [compound A, 5-Hydroxy-1H-imidazole-4-carboxamide] |  |  |  | changed color to indigo blue or blue |
| Cl.NC(=O)c1nc[nH]c1O [hydrochloride of the compound A] |  |  |  | stable |
